Patent publication US20260355212A1 (priority 2022, published 2026)
Where two headings read alike, the source gives them in different places.

Columns and labels:
SARS-CoV-2 Mpro = SARS-CoV-2 Mpro (Severe acute respiratory syndrome coronavirus 2, UniProt P0DTD1); experiment: SARS-CoV-2 Mpro enzymatic inhibition assay (fluorescence); format: biochemical
How it was run: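 A fluorescence readout (340 nm excitation, 490 nm emission) was taken after the substrate reaction ran 60 min at 30° C. Before substrate addition, E. coli-expressed protease and compound (3-fold dilutions, 10 doses, duplicates) sat together 30 min at room temperature. Percent inhibition was fitted by variable-slope nonlinear regression to give IC50.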

HCoV-229E Mpro = HCoV-229E Mpro (Human coronavirus 229E, UniProt P0C6X1); experiment: HCoV-229E Mpro enzymatic inhibition assay (fluorescence); format: biochemical
Sequence of HCoV-229E Mpro (P0C6X1 2966-3267 limits assumed): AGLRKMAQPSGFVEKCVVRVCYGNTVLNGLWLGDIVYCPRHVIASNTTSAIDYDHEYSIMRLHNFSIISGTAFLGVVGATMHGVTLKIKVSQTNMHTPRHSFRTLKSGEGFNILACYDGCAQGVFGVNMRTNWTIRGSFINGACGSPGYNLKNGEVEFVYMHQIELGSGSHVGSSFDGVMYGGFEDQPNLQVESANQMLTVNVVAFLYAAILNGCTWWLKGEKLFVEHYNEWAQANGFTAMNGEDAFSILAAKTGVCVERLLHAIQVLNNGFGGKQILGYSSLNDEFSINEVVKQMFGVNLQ

HCoV-HKU1 Mpro = HCoV-HKU1 Mpro (Human coronavirus HKU1, UniProt P0C6X2); experiment: HCoV-HKU1 Mpro enzymatic inhibition assay (fluorescence); format: biochemical
Sequence of HCoV-HKU1 Mpro (P0C6X2 3335-3637 limits assumed): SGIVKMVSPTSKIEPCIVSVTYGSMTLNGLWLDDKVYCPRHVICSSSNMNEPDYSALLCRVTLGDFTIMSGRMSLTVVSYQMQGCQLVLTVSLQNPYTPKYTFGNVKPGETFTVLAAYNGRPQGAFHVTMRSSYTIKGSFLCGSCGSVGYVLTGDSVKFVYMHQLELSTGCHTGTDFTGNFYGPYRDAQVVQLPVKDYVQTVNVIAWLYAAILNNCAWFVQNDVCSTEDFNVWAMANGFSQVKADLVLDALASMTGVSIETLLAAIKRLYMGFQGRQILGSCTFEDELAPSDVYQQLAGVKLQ
How it was run: (§1)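 Fluorescence at 340/490 nm after 60 min substrate cleavage at 30 °C is the read-out. Purified E. coli-expressed protease had been pre-incubated 30 min at room temperature with 10-dose, 3-fold compound series in duplicate.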

MERS Mpro = MERS Mpro (Middle East respiratory syndrome-related coronavirus, UniProt K9N7C7); experiment: biochemical; set-up: species or system MERS-CoV
Sequence of MERS Mpro (K9N7C7 3248-3553 limits assumed): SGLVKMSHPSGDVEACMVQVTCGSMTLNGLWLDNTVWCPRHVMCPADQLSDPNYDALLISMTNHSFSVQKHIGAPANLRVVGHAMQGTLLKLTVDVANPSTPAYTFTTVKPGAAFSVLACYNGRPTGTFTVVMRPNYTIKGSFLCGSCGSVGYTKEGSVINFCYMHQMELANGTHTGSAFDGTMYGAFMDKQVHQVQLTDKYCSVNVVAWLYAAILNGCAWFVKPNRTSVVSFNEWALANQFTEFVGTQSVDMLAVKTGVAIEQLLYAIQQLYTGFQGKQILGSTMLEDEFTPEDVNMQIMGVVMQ

HCoV-NL63 Mpro = HCoV-NL63 Mpro (Human coronavirus NL63, UniProt P0C6X5); experiment: HCoV-NL63 Mpro enzymatic inhibition assay (fluorescence); format: biochemical
Sequence of HCoV-NL63 Mpro (P0C6X5 2940-3242 limits assumed): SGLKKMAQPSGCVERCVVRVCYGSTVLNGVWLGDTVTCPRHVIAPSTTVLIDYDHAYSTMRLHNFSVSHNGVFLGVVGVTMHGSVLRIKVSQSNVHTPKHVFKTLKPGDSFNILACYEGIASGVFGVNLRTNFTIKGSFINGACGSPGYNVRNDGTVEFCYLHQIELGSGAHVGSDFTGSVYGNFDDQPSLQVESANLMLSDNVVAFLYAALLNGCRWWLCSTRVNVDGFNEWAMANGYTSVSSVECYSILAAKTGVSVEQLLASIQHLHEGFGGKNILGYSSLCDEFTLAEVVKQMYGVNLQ
How it was run: as §1

HCoV-OC43 Mpro = HCoV-OC43 Mpro (Human coronavirus OC43, UniProt P0C6X6); experiment: HCoV-OC43 Mpro enzymatic inhibition assay (fluorescence); format: biochemical
Sequence of HCoV-OC43 Mpro (P0C6X6 3247-3549 limits assumed): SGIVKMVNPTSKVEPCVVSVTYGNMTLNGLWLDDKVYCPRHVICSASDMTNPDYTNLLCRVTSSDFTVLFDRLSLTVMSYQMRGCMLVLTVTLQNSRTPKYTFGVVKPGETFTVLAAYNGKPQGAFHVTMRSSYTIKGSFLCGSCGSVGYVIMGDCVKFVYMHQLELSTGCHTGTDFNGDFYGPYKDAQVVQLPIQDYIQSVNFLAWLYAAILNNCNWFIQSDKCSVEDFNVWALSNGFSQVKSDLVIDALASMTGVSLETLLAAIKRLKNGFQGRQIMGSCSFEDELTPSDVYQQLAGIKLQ
How it was run: as §1

SARS-CoV-1 Mpro = SARS-CoV-1 Mpro (Severe acute respiratory syndrome coronavirus, UniProt P0C6X7); experiment: biochemical
[1] = mean, 25 nM protein, 25 μM substrate, 30 min pre-incubation, 60 min at 30° C., read-out: Mpro_SARS-CoV-2 mean IC50

Row | Structure (SMILES) | IC50 (SARS-CoV-2 Mpro) [nM] | IC50 (HCoV-229E Mpro) [nM] | IC50 (HCoV-HKU1 Mpro) [nM] | IC50 (MERS Mpro) [nM] | IC50 (HCoV-NL63 Mpro) [nM] | IC50 (HCoV-OC43 Mpro) [nM] | IC50 (SARS-CoV-1 Mpro) [nM] | IC50 (SARS-CoV-2 Mpro; [1]) [nM] | IC50 (HCoV-229E Mpro; mean, 50 nM protein, 12.5 μM substrate, 30 min pre-incubation, 60 min at 30° C., read-out: Mpro_229E mean IC50) [nM] | IC50 (HCoV-HKU1 Mpro; mean, 12.5 nM protein, 12.5 μM substrate, 30 min pre-incubation, 60 min at 30° C., read-out: Mpro_HKU1 mean IC50) [nM] | IC50 (HCoV-NL63 Mpro; mean, 50 nM protein, 12.5 μM substrate, 30 min pre-incubation, 60 min at 30° C., read-out: Mpro_NL63 mean IC50) [nM] | IC50 (HCoV-OC43 Mpro; mean, 25 nM protein, 12.5 μM substrate, 30 min pre-incubation, 60 min at 30° C., read-out: Mpro_OC43 mean IC50) [nM]
1 | CCOc1ccc2[nH]c(C(=O)N3C[C@H]4[C@@H]([C@H]3C(=O)N[C@H](C=O)C[C@@H]3CCNC3=O)C4(C)C)cc2c1 [Compound 111, (1R,2S,5S)-3-(5-Ethoxy-1H-indole-2-carbonyl)-6,6-dimethyl-N—((S)-1-oxo-3-((S)-2-oxopyrrolidin-3-yl)propan-2-yl)-3-azabicyclo[3.1.0]hexane-2-carboxamide] | 84.1 | 83.3 | 73.3 | 866 | 135 | 169 | 119 | – | – | – | – | –
2 | N#C[C@@H]1C[C@@H](C(=O)N[C@H](C=O)C[C@@H]2CCNC2=O)N(C(=O)c2cc3ccccc3[nH]2)C1 [Compound 112, (2S,4R)-4-Cyano-1-(1H-indole-2-carbonyl)-N—((S)-1-oxo-3-((S)-2-oxopyrrolidin-3-yl)propan-2-yl)pyrrolidine-2-carboxamide] | 84.6 | 149 | 120 | 2760 | 503 | 390 | 244 | – | – | – | – | –
3 | O=C[C@H](C[C@@H]1CCNC1=O)NC(=O)[C@@H]1C[C@@H]2CCCC[C@@H]2N1C(=O)c1cc2ccccc2[nH]1 [Compound 113, (2S,3aS,7aS)-1-(1H-Indole-2-carbonyl)-N—((S)-1-oxo-3-((S)-2-oxopyrrolidin-3-yl)propan-2-yl)octahydro-1H-indole-2-carboxamide] | 91.6 | 33.2 | 28.4 | 581 | 35.7 | 79.3 | 339 | – | – | – | – | –
4 | COc1cc2cc(C(=O)N3C[C@H]4[C@@H]([C@H]3C(=O)N[C@H](C=O)C[C@@H]3CCNC3=O)C4(C)C)[nH]c2cc1OC [Compound 114, (1R,2S,5S)-3-(5,6-dimethoxy-1H-Indole-2-carbonyl)-6,6-dimethyl-N—((S)-1-oxo-3-((S)-2-oxopyrrolidin-3-yl)propan-2-yl)-3-azabicyclo[3.1.0]hexane-2-carboxamide] | 97.3 | 56.2 | 30.6 | 429 | 99.3 | 77.9 | 149 | – | – | – | – | –
5 | O=C[C@H](C[C@@H]1CCNC1=O)NC(=O)[C@@H]1CC(F)(F)CN1C(=O)c1cc2ccccc2[nH]1 [Compound 115, (S)-4,4-difluoro-1-(1H-Indole-2-carbonyl)-N—((S)-1-oxo-3-((S)-2-oxopyrrolidin-3-yl)propan-2-yl)pyrrolidine-2-carboxamide] | 102 | 53 | 15 | 303 | 105 | 87 | 250 | – | – | – | – | –
6 | Cc1cccc2c1cc(C(=O)N1C[C@H]3[C@@H]([C@H]1C(=O)N[C@H](C=O)C[C@@H]1CCNC1=O)C3(C)C)n2C [Compound 118, (1R,2S,5S)-3-(1,4-Dimethylindole-2-carbonyl)-N-[(1S)-1-formyl-2-[(3S)-2-oxopyrrolidin-3-yl]ethyl]-6,6-dimethyl-3-azabicyclo[3.1.0]hexane-2-carboxamide] | 127 | 325 | 324 | 3290 | 1780 | 436 | 349 | – | – | – | – | –
7 | Cc1cccc([C@@H](C)C(=O)N2C[C@H]3[C@@H]([C@H]2C(=O)N[C@H](C#N)C[C@@H]2CCNC2=O)C3(C)C)c1 [Compound 120] | – | – | – | 1130 | – | – | 196 | 151 | 299 | 193 | 1400 | 567
8 | CO[C@@H]1C[C@@H](C(=O)N[C@H](C=O)C[C@@H]2CCNC2=O)N(C(=O)c2cc3ccccc3[nH]2)C1 [Compound 121, (2S,4R)-1-(1H-Indole-2-carbonyl)-4-methoxy-N—((S)-1-oxo-3-((S)-2-oxopyrrolidin-3-yl)propan-2-yl)pyrrolidine-2-carboxamide] | 159 | 152 | 546 | 2630 | 198 | 825 | 294 | – | – | – | – | –
9 | CC1(C)[C@@H]2[C@@H](C(=O)N[C@H](C=O)C[C@@H]3CCNC3=O)N(C(=O)c3[nH]c4ccccc4c3-c3ccccc3)C[C@@H]21 [Compound 122, (1R,2S,5S)-6,6-Dimethyl-N—((S)-1-oxo-3-((S)-2-oxopyrrolidin-3-yl)propan-2-yl)-3-(3-phenyl-1H-indole-2-carbonyl)-3-azabicyclo[3.1.0]hexane-2-carboxamide] | 162 | 172 | 366 | 1550 | 1020 | 423 | 234 | – | – | – | – | –
10 | CC1(C)[C@@H]2[C@@H](C(=O)N[C@H](C#N)C[C@@H]3CCNC3=O)N(C(=O)C3(c4cccc(Cl)c4)CC3)C[C@@H]21 [Compound 123, (1R,2S,5S)-3-(1-(3-Chlorophenyl)cyclopropanecarbonyl)-N—((S)-1-cyano-2-((S)-2-oxopyrrolidin-3-yl)ethyl)-6,6-dimethyl-3-azabicyclo[3.1.0]hexane-2-carboxamide] | – | 459 | 185 | 1180 | 2110 | 419 | 224 | 178 | – | – | – | –
11 | CC1(C)[C@@H]2[C@@H](C(=O)N[C@H](C=O)C[C@@H]3CCNC3=O)N(C(=O)C3CCCC3)C[C@@H]21 [Compound 124, (1R,2S,5S)-3-(Cyclopentanecarbonyl)-6,6-dimethyl-N—((S)-1-oxo-3-((S)-2-oxopyrrolidin-3-yl)propan-2-yl)-3-azabicyclo[3.1.0]hexane-2-carboxamide] | – | 162 | 407 | 2000 | 2500 | 490 | 473 | 211 | – | – | – | –
12 | O=C[C@H](C[C@@H]1CCNC1=O)NC(=O)[C@@H]1C[C@@H]2C[C@@H]2N1C(=O)c1cc2ccccc2[nH]1 [Compound 125, (1S,3S,5S)-2-(1H-Indole-2-carbonyl)-N—((S)-1-oxo-3-((S)-2-oxopyrrolidin-3-yl)propan-2-yl)-2-azabicyclo[3.1.0]hexane-3-carboxamide] | 228 | 116 | 154 | 916 | 218 | 284 | 685 | – | – | – | – | –
13 | O=C[C@H](C[C@@H]1CCNC1=O)NC(=O)[C@@H]1CC2(CC2)CN1C(=O)CC1CCCCC1 [Compound 126, (S)-5-(2-Cyclohexylacetyl)-N—((S)-1-oxo-3-((S)-2-oxopyrrolidin-3-yl)propan-2-yl)-5-azaspiro[2.4]heptane-6-carboxamide] | 231 | 56.3 | 38.4 | 358 | 97.7 | 112 | 84.5 | – | – | – | – | –
14 | O=C1NCC[C@H]1C[C@H](NC(=O)[C@@H]1CC2(CC2)CN1C(=O)c1cc2ccccc2[nH]1)C(=O)c1nc2ccccc2s1 [Compound 127, (S)—N—((S)-1-(benzo[d]thiazol-2-yl)-1-oxo-3-((S)-2-oxopyrrolidin-3-yl)propan-2-yl)-5-(1H-indole-2-carbonyl)-5-azaspiro[2.4]heptane-6-carboxamide] | 261 | 95.1 | 372 | 409 | 195 | 507 | 600 | – | – | – | – | –
15 | CC1(C)[C@@H]2[C@@H](C(=O)N[C@H](C#N)C[C@@H]3CCNC3=O)N(C(=O)c3cc4c(F)ccc(Cl)c4[nH]3)C[C@@H]21 [Compound 128, (1R,2S,5S)-3-(7-Chloro-4-fluoro-1H-indole-2-carbonyl)-N—((S)-1-cyano-2-((S)-2-oxopyrrolidin-3-yl)ethyl)-6,6-dimethyl-3-azabicyclo[3.1.0]hexane-2-carboxamide] | 318 | 1230 | 1900 | 5580 | 3980 | 1990 | 788 | – | – | – | – | –
16 | O=C[C@H](C[C@@H]1CCNC1=O)NC(=O)[C@@H]1C[C@@H]2CCC[C@@H]2N1C(=O)c1cc2ccccc2[nH]1 [Compound 129, (2S,3aS,6aS)-1-(1H-Indole-2-carbonyl)-N—((S)-1-oxo-3-((S)-2-oxopyrrolidin-3-yl)propan-2-yl)octahydrocyclopenta[b]pyrrole-2-carboxamide] | 351 | 38 | 76 | 1110 | 51 | 166 | 874 | – | – | – | – | –
